From ChEMBL document CHEMBL3352542, “Synthesis, biological evaluation and molecular modeling study of 2-(1,3,4-thiadiazolyl-thio and 4-methyl-thiazolyl-thio)-quinazolin-4-ones as a new class of DHFR inhibitors” (Bioorg Med Chem Lett, 2014)
Calls of active or inactive are those of the source.

Columns and labels:
[1] = tested on: Candida albicans; test: Antimicrobial activity against Candida albicans assessed as inhibition zone at 200 ug/disk after 24 hrs by disc-diffusion method; assay type: functional; conditions: read-out: IZ
[2] = tested on: NCI-H522; test: Growth inhibition of human NCI-H522 cells at 10 uM after 48 hrs; assay type: functional
[3] = tested on: SK-MEL-5; test: Growth inhibition of human SK-MEL-5 cells at 10 uM after 48 hrs; assay type: functional
[4] = tested on: SNB-75; test: Growth inhibition of human SNB75 cells at 10 uM after 48 hrs; assay type: functional
[5] = tested on: HCC 2998; test: Growth inhibition of human HCC2998 cells at 10 uM after 48 hrs; assay type: functional
[6] = tested on: 786-0; test: Growth inhibition of human 786-0 cells at 10 uM after 48 hrs; assay type: functional
[7] = tested on: MDA-MB-468; test: Growth inhibition of human MDA-MB-468 cells at 10 uM after 48 hrs; assay type: functional
[8] = tested on: M14; test: Growth inhibition of human M14 cells at 10 uM after 48 hrs; assay type: functional
[9] = tested on: KM12; test: Growth inhibition of human KM12 cells at 10 uM after 48 hrs; assay type: functional
[10] = tested on: Staphylococcus aureus; test: Antimicrobial activity against Staphylococcus aureus assessed as inhibition zone at 200 ug/disk after 24 hrs by disc-diffusion method; assay type: functional; conditions: read-out: IZ
[11] = tested on: MCF7; test: Growth inhibition of human MCF7 cells at 10 uM after 48 hrs; assay type: functional
[12] = tested on: HOP-92; test: Growth inhibition of human HOP92 cells at 10 uM after 48 hrs; assay type: functional
[13] = tested on: Pseudomonas aeruginosa; test: Antimicrobial activity against Pseudomonas aeruginosa assessed as inhibition zone at 200 ug/disk after 24 hrs by disc-diffusion method; assay type: functional; conditions: read-out: IZ
[14] = tested on: OVCAR-5; test: Growth inhibition of human OVCAR5 cells at 10 uM after 48 hrs; assay type: functional
[15] = tested on: NCI-H460; test: Growth inhibition of human NCI-H460 cells at 10 uM after 48 hrs; assay type: functional
[16] = tested on: HT-29; test: Growth inhibition of human HT-29 cells at 10 uM after 48 hrs; assay type: functional
[17] = tested on: MDA-MB-231; test: Growth inhibition of human MDA-MB-231 cells at 10 uM after 48 hrs; assay type: functional
[18] = tested on: PC-3; test: Growth inhibition of human PC3 cells at 10 uM after 48 hrs; assay type: functional
[19] = tested on: UACC-257; test: Growth inhibition of human UACC257 cells at 10 uM after 48 hrs; assay type: functional
[20] = tested on: RPMI-8226; test: Growth inhibition of human RPMI8226 cells at 10 uM after 48 hrs; assay type: functional
[21] = tested on: A498; test: Growth inhibition of human A498 cells at 10 uM after 48 hrs; assay type: functional
[22] = tested on: SF-268; test: Growth inhibition of human SF268 cells at 10 uM after 48 hrs; assay type: functional
[23] = tested on: NCI-H23; test: Growth inhibition of human NCI-H23 cells at 10 uM after 48 hrs; assay type: functional
[24] = tested on: HL-60(TB); test: Growth inhibition of human HL-60(TB) cells at 10 uM after 48 hrs; assay type: functional
[25] = tested on: OVCAR-8; test: Growth inhibition of human OVCAR8 cells at 10 uM after 48 hrs; assay type: functional
[26] = tested on: BT-549; test: Growth inhibition of human BT549 cells at 10 uM after 48 hrs; assay type: functional
[27] = target: T1, Dihydrofolate reductase (Bos taurus, UniProt P00376); test: Inhibition of bovine liver DHFR
T1 sequence (P00376 whole entry): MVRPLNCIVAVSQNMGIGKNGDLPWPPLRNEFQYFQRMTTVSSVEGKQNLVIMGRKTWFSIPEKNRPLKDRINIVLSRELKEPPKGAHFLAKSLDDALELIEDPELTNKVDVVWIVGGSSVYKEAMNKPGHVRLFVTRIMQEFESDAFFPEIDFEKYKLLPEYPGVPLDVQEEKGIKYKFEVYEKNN

[28] = tested on: SF-539; test: Growth inhibition of human SF539 cells at 10 uM after 48 hrs; assay type: functional
[29] = tested on: K562; test: Growth inhibition of human K562 cells at 10 uM after 48 hrs; assay type: functional
[30] = tested on: NCI-H226; test: Growth inhibition of human NCI-H226 cells at 10 uM after 48 hrs; assay type: functional
[31] = tested on: OVCAR-4; test: Growth inhibition of human OVCAR4 cells at 10 uM after 48 hrs; assay type: functional
[32] = tested on: MDA-MB-435; test: Growth inhibition of human MDA-MB-435 cells at 10 uM after 48 hrs; assay type: functional
[33] = tested on: Hs-578T; test: Growth inhibition of human Hs 578T cells at 10 uM after 48 hrs; assay type: functional
[34] = tested on: HCT-116; test: Growth inhibition of human HCT116 cells at 10 uM after 48 hrs; assay type: functional
[35] = tested on: NCI/ADR-RES; test: Growth inhibition of human NCI-ADR-RES cells at 10 uM after 48 hrs; assay type: functional
[36] = tested on: A549; test: Growth inhibition of human A549 cells at 10 uM after 48 hrs; assay type: functional
[37] = tested on: Bacillus subtilis; test: Antimicrobial activity against Bacillus subtilis assessed as inhibition zone at 200 ug/disk after 24 hrs by disc-diffusion method; assay type: functional; conditions: read-out: IZ
[38] = tested on: MOLT-4; test: Growth inhibition of human MOLT4 cells at 10 uM after 48 hrs; assay type: functional
[39] = tested on: UACC-62; test: Growth inhibition of human UACC62 cells at 10 uM after 48 hrs; assay type: functional
[40] = tested on: OVCAR-3; test: Growth inhibition of human OVCAR3 cells at 10 uM after 48 hrs; assay type: functional
[41] = tested on: SN12C; test: Growth inhibition of human SN12C cells at 10 uM after 48 hrs; assay type: functional
[42] = tested on: LOX IMVI; test: Growth inhibition of human LOXIMVI cells at 10 uM after 48 hrs; assay type: functional
[43] = tested on: Escherichia coli; test: Antimicrobial activity against Escherichia coli assessed as inhibition zone at 200 ug/disk after 24 hrs by disc-diffusion method; assay type: functional; conditions: read-out: IZ
[44] = tested on: RXF 393; test: Growth inhibition of human RXF393 cells at 10 uM after 48 hrs; assay type: functional
[45] = tested on: CAKI-1; test: Growth inhibition of human CAKI-1 cells at 10 uM after 48 hrs; assay type: functional
[46] = tested on: TK-10; test: Growth inhibition of human TK10 cells at 10 uM after 48 hrs; assay type: functional
[47] = tested on: CCRF-CEM; test: Growth inhibition of human CCRF-CEM cells at 10 uM after 48 hrs; assay type: functional
[48] = tested on: T47D; test: Growth inhibition of human T47D cells at 10 uM after 48 hrs; assay type: functional
[49] = tested on: ACHN; test: Growth inhibition of human ACHN cells at 10 uM after 48 hrs; assay type: functional
[50] = tested on: SF-295; test: Growth inhibition of human SF295 cells at 10 uM after 48 hrs; assay type: functional
[51] = tested on: SW-620; test: Growth inhibition of human SW620 cells at 10 uM after 48 hrs; assay type: functional
[52] = tested on: COLO 205; test: Growth inhibition of human COLO205 cells at 10 uM after 48 hrs; assay type: functional
[53] = tested on: HCT-15; test: Growth inhibition of human HCT15 cells at 10 uM after 48 hrs; assay type: functional
[54] = tested on: SNB-19; test: Growth inhibition of human SNB19 cells at 10 uM after 48 hrs; assay type: functional
[55] = tested on: Malme-3M; test: Growth inhibition of human MALME-3M cells at 10 uM after 48 hrs; assay type: functional
[56] = tested on: SR; test: Growth inhibition of human SR cells at 10 uM after 48 hrs; assay type: functional
[57] = tested on: UO-31; test: Growth inhibition of human UO31 cells at 10 uM after 48 hrs; assay type: functional
[58] = tested on: U-251; test: Growth inhibition of human U251 cells at 10 uM after 48 hrs; assay type: functional

COc1cc2nc(Sc3sc(N)nc3C)n(-c3ccc(Cl)cc3)c(=O)c2cc1OC
inactive: growth inhibition (GI) [2] | growth inhibition (GI) [3] | growth inhibition (GI) [4] | growth inhibition (GI) [5] | growth inhibition (GI) [6] | growth inhibition (GI) [7] | growth inhibition (GI) [8] | growth inhibition (GI) [9] | growth inhibition (GI) [11] | growth inhibition (GI) [12] | growth inhibition (GI) [14] | growth inhibition (GI) [15] | growth inhibition (GI) [16] | growth inhibition (GI) [17] | growth inhibition (GI) [18] | growth inhibition (GI) [19] | growth inhibition (GI) [20] | growth inhibition (GI) [21] | growth inhibition (GI) [22] | growth inhibition (GI) [23] | growth inhibition (GI) [24] | growth inhibition (GI) [25] | growth inhibition (GI) [26] | growth inhibition (GI) [28] | growth inhibition (GI) [29] | growth inhibition (GI) [30] | growth inhibition (GI) [31] | growth inhibition (GI) [32] | growth inhibition (GI) [33] | growth inhibition (GI) [34] | growth inhibition (GI) [35] | growth inhibition (GI) [36] | growth inhibition (GI) [38] | growth inhibition (GI) [39] | growth inhibition (GI) [40] | growth inhibition (GI) [41] | growth inhibition (GI) [42] | growth inhibition (GI) [44] | growth inhibition (GI) [45] | growth inhibition (GI) [46] | growth inhibition (GI) [47] | growth inhibition (GI) [48] | growth inhibition (GI) [49] | growth inhibition (GI) [50] | growth inhibition (GI) [51] | growth inhibition (GI) [52] | growth inhibition (GI) [53] | growth inhibition (GI) [54] | growth inhibition (GI) [55] | growth inhibition (GI) [56] | growth inhibition (GI) [57] | growth inhibition (GI) [58]
14 mm: zone of inhibition at 200 µg/disc [37]
18 mm: zone of inhibition at 200 µg/disc [10]
2000 nM: IC50 [27]
8 mm: zone of inhibition at 200 µg/disc [1] | zone of inhibition at 200 µg/disc [13] | zone of inhibition at 200 µg/disc [43]
